Results from ChEMBL document CHEMBL1155845, “Novel terphenyls and 3,5-diaryl isoxazole derivatives endowed with growth supporting and antiapoptotic properties” (J Med Chem, 2008).
Each block holds one molecule with its values, some of them ahead of it. Activity calls are given as the source filed them. No cut-off for these calls is given here.

Tests used:
[1] = test system: HL-60; assay: Growth inhibition of human HL60 cells after 48 hrs by trypan blue assay; assay type: functional, cell-based; details: HL-60, 48 h
[2] = test system: HL-60; assay: Antiapoptotic activity in human HL60 cells after 72 hrs in serum free medium relative to control; assay type: functional
[3] = test system: HL-60; assay: Antiproliferative activity against human HL60 cells after 72 hrs in serum free medium; assay type: functional
[4] = test system: HL-60; assay: Growth inhibition of human HL60 cells at greater than 10 uM after 48 hrs by trypan blue assay; assay type: functional, cell-based
[5] = test system: HL-60; assay: Enhancement of human HL60 cells growth at less than 10 uM after 48 hrs by trypan blue assay; assay type: functional, cell-based
[6] = test system: HL-60; assay: Enhancement of human HL60 cells growth at 1 uM after 72 hrs in serum free medium; assay type: functional, cell-based
[7] = test system: HL-60; assay: Enhancement of human HL60 cells growth at 2.5 uM after 72 hrs in serum free medium; assay type: functional, cell-based
[8] = test system: HL-60; assay: Enhancement of human HL60 cells growth at 5 uM after 72 hrs in serum free medium; assay type: functional, cell-based
[9] = test system: HL-60; assay: Enhancement of human HL60 cells growth assessed as promotion of G1 to S transition at 2.5 uM after 24 hrs by flow cytometry; assay type: functional, cell-based
[10] = test system: HL-60; assay: Inhibition of daunorubicin-induced apoptosis in human HL60 cells at 2.5 uM after 48 hrs; assay type: functional, cell-based
[11] = test system: HL-60; assay: Antiapoptotic activity in human HL60 cells at 2.5 to 5 uM after 72 hrs in serum free medium relative to control; assay type: functional
[12] = test system: HL-60; assay: Growth inhibition of human HL60 cells at 5 after 72 hrs in serum free medium; assay type: functional, cell-based
[13] = test system: HL-60; assay: Growth inhibition of human HL60 cells at 2.5 uM after 72 hrs in serum free medium; assay type: functional, cell-based

IC50 [1]: 8 µM
Compound: O=C(O)c1ccc(-c2ccccc2-c2ccc(O)c(C34CC5CC(CC(C5)C3)C4)c2)cc1

Compound: COc1cc(-c2ccc(-c3ccc(C(=O)O)cc3)cc2)cc(OC)c1OC
Activity [2]: 18%

IC50 [1]: 3 µM
Compound: O=C(O)c1ccc(-c2cc(-c3ccc(O)c(C45CC6CC(CC(C6)C4)C5)c3)on2)cc1

Compound: O=[N+]([O-])c1ccc(-c2cc(-c3ccc(O)c(C45CC6CC(CC(C6)C4)C5)c3)on2)cc1
growth inhibition (GI) [3]: 70%
Activity [4]: Active
Activity [5]: Active
Activity [6]: Active
Activity [7]: Active

Compound: O=C(O)c1ccc(-c2ccc(-c3ccc(O)c(C45CC6CC(CC(C6)C4)C5)c3)cc2)cc1
Activity [4]: Active

Compound: O=[N+]([O-])c1ccc(-c2cc(-c3ccc(O)c(C45CC6CC(CC(C6)C4)C5)c3)no2)cc1
growth inhibition (GI) [3]: 70%
Activity [8]: Active
Activity [4]: Active
Activity [5]: Active
Activity [9]: Active
Activity [10]: Active
Activity [11]: 10%

Compound: O=C(O)c1ccc(-c2cccc(-c3ccc(O)c(C45CC6CC(CC(C6)C4)C5)c3)c2)cc1
Activity [4]: Active

Compound: COc1cc(-c2cccc(-c3ccc(C(=O)O)cc3)c2)cc(OC)c1OC
Activity [2]: 17%

Compound: O=C(O)c1ccc(C2=NOC(c3ccc(O)c(C45CC6CC(CC(C6)C4)C5)c3)C2)cc1 (stereo not drawn)
growth inhibition (GI) [3]: 70%
Activity [4]: Active
Activity [5]: Active
Activity [12]: Active
Activity [13]: Active
